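Tested at 5 concentrations; 48 h exposure; 96-well plates; endpoints linearly interpolated, else capped at highest concentration. At the TGI there is no net growth.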
Columns and labels:
Experiment in all cases: DTP human tumour cell line panel, 48 h
786-0 renal = test system: 786-0 renal
A498 renal = test system: A498 renal
A549 NSCLC = test system: A549 NSCLC
ACHN renal = test system: ACHN renal
BT-549 breast = test system: BT-549 breast
CAKI-1 renal = test system: CAKI-1 renal
CCRF-CEM leukemia = test system: CCRF-CEM leukemia
COLO 205 colon = test system: COLO 205 colon
DU-145 prostate = test system: DU-145 prostate
EKVX NSCLC = test system: EKVX NSCLC
HCC-2998 colon = test system: HCC-2998 colon
HCT-116 colon = test system: HCT-116 colon
HCT-15 colon = test system: HCT-15 colon
HL-60(TB) leukemia = test system: HL-60(TB) leukemia
HOP-62 NSCLC = test system: HOP-62 NSCLC
HOP-92 NSCLC = test system: HOP-92 NSCLC
HS 578T breast = test system: HS 578T breast
HT29 colon = test system: HT29 colon
IGROV1 ovarian = test system: IGROV1 ovarian
K-562 leukemia = test system: K-562 leukemia
KM12 colon = test system: KM12 colon
LOX IMVI melanoma = test system: LOX IMVI melanoma
M14 melanoma = test system: M14 melanoma
MALME-3M melanoma = test system: MALME-3M melanoma
MCF7 breast = test system: MCF7 breast
MDA-MB-231 breast = test system: MDA-MB-231 breast
MDA-MB-435 = test system: MDA-MB-435
MDA-N = test system: MDA-N
MOLT-4 leukemia = test system: MOLT-4 leukemia
NCI-H226 lung = test system: NCI-H226 lung
NCI-H23 lung = test system: NCI-H23 lung
NCI-H460 lung = test system: NCI-H460 lung
NCI-H522 lung = test system: NCI-H522 lung
NCI/ADR-RES ovarian = test system: NCI/ADR-RES ovarian
OVCAR-3 ovarian = test system: OVCAR-3 ovarian
OVCAR-4 ovarian = test system: OVCAR-4 ovarian
OVCAR-5 ovarian = test system: OVCAR-5 ovarian
OVCAR-8 ovarian = test system: OVCAR-8 ovarian
PC-3 prostate = test system: PC-3 prostate
RPMI-8226 leukemia = test system: RPMI-8226 leukemia
RXF 393 renal = test system: RXF 393 renal
SF-268 CNS = test system: SF-268 CNS
SF-295 CNS = test system: SF-295 CNS
SF-539 CNS = test system: SF-539 CNS
SK-MEL-2 melanoma = test system: SK-MEL-2 melanoma
SK-MEL-28 melanoma = test system: SK-MEL-28 melanoma
SK-MEL-5 melanoma = test system: SK-MEL-5 melanoma
SK-OV-3 ovarian = test system: SK-OV-3 ovarian
SN12C renal = test system: SN12C renal
SNB-75 CNS = test system: SNB-75 CNS
SR leukemia = test system: SR leukemia
SW-620 colon = test system: SW-620 colon
T-47D breast = test system: T-47D breast
TK-10 renal = test system: TK-10 renal
U251 CNS = test system: U251 CNS
UACC-257 melanoma = test system: UACC-257 melanoma
UACC-62 melanoma = test system: UACC-62 melanoma
UO-31 renal = test system: UO-31 renal
SNB-19 CNS = test system: SNB-19 CNS

## O=[N+]([O-])c1cccc2nccc(NCC(O)CO)c12 (stereo unspecified)
786-0 renal
  TGI: 35 µM
A498 renal
  TGI: 19.3 µM
A549 NSCLC
  TGI: 36.4 µM
ACHN renal
  TGI: 45.2 µM
BT-549 breast
  TGI: 29.6 µM
CAKI-1 renal
  TGI: 35.8 µM
CCRF-CEM leukemia
  TGI: > 89.9 µM
COLO 205 colon
  TGI: 33.5 µM
DU-145 prostate
  TGI: 75.6 µM
EKVX NSCLC
  TGI: 27.6 µM
HCC-2998 colon
  TGI: 25.8 µM
HCT-116 colon
  TGI: 26.8 µM
HCT-15 colon
  TGI: 22.4 µM
HL-60(TB) leukemia
  TGI: 49.4 µM
HOP-62 NSCLC
  TGI: 33.6 µM
HOP-92 NSCLC
  TGI: 53.8 µM
HS 578T breast
  TGI: 40.7 µM
HT29 colon
  TGI: 42 µM
IGROV1 ovarian
  TGI: 38.9 µM
K-562 leukemia
  TGI: > 93.3 µM
KM12 colon
  TGI: 28.7 µM
LOX IMVI melanoma
  TGI: 54.7 µM
M14 melanoma
  TGI: 32.9 µM
MALME-3M melanoma
  TGI: 28.4 µM
MCF7 breast
  TGI: 40 µM
MDA-MB-231 breast
  TGI: 45 µM
MDA-MB-435
  TGI: 37.8 µM
MDA-N
  TGI: 31.8 µM
MOLT-4 leukemia
  TGI: > 80.6 µM
NCI-H226 lung
  TGI: 19.4 µM
NCI-H23 lung
  TGI: 43.1 µM
NCI-H460 lung
  TGI: 26.3 µM
NCI-H522 lung
  TGI: 26 µM
NCI/ADR-RES ovarian
  TGI: 73.3 µM
OVCAR-3 ovarian
  TGI: 33.7 µM
OVCAR-4 ovarian
  TGI: 43 µM
OVCAR-5 ovarian
  TGI: 42.1 µM
OVCAR-8 ovarian
  TGI: 33.2 µM
PC-3 prostate
  TGI: 38.5 µM
RPMI-8226 leukemia
  TGI: 61.2 µM
RXF 393 renal
  TGI: 26.4 µM
SF-268 CNS
  TGI: 67.9 µM
SF-295 CNS
  TGI: 53.7 µM
SF-539 CNS
  TGI: 36.9 µM
SK-MEL-2 melanoma
  TGI: 26 µM
SK-MEL-28 melanoma
  TGI: 34 µM
SK-MEL-5 melanoma
  TGI: 25.8 µM
SK-OV-3 ovarian
  TGI: 74.9 µM
SN12C renal
  TGI: 41 µM
SNB-75 CNS
  TGI: > 63.9 µM
SR leukemia
  TGI: 28 µM
SW-620 colon
  TGI: 36.1 µM
T-47D breast
  TGI: 96.1 µM
TK-10 renal
  TGI: 44 µM
U251 CNS
  TGI: 32.6 µM
UACC-257 melanoma
  TGI: 30 µM
UACC-62 melanoma
  TGI: 31.5 µM
UO-31 renal
  TGI: 37.2 µM

## CC(=O)CCC[C@@H](C)[C@@H]1O[C@H]([C@@]2(C)CCC(=O)O2)C[C@H]2C(CSc3ccccc3)C(=O)O[C@@H]12 (stereo partly specified)
786-0 renal
  TGI: 42.2 µM
A498 renal
  TGI: > 88.9 µM
A549 NSCLC
  TGI: 44.1 µM
ACHN renal
  TGI: 28.9 µM
BT-549 breast
  TGI: 27.5 µM
CAKI-1 renal
  TGI: 27.2 µM
CCRF-CEM leukemia
  TGI: 24.9 µM
COLO 205 colon
  TGI: 31.4 µM
DU-145 prostate
  TGI: 29.1 µM
EKVX NSCLC
  TGI: 24.3 µM
HCC-2998 colon
  TGI: 29.2 µM
HCT-116 colon
  TGI: 31.2 µM
HCT-15 colon
  TGI: 47.3 µM
HL-60(TB) leukemia
  TGI: 12.8 µM
HOP-62 NSCLC
  TGI: > 100 µM
HOP-92 NSCLC
  TGI: 39.1 µM
HS 578T breast
  TGI: > 41.6 µM
HT29 colon
  TGI: 40.1 µM
IGROV1 ovarian
  TGI: > 38 µM
K-562 leukemia
  TGI: > 100 µM
KM12 colon
  TGI: 28.9 µM
LOX IMVI melanoma
  TGI: 38.2 µM
M14 melanoma
  TGI: 26.8 µM
MALME-3M melanoma
  TGI: > 42.5 µM
MCF7 breast
  TGI: 24.9 µM
MDA-MB-231 breast
  TGI: 37.3 µM
MDA-MB-435
  TGI: 45.6 µM
MDA-N
  TGI: 42.2 µM
MOLT-4 leukemia
  TGI: 16 µM
NCI-H226 lung
  TGI: 37.5 µM
NCI-H23 lung
  TGI: 49.3 µM
NCI-H460 lung
  TGI: > 57.5 µM
NCI-H522 lung
  TGI: 15.2 µM
NCI/ADR-RES ovarian
  TGI: 43.7 µM
OVCAR-3 ovarian
  TGI: 27.8 µM
OVCAR-4 ovarian
  TGI: 31.8 µM
OVCAR-5 ovarian
  TGI: 32.4 µM
OVCAR-8 ovarian
  TGI: > 50.8 µM
PC-3 prostate
  TGI: 47.6 µM
RPMI-8226 leukemia
  TGI: 52.1 µM
RXF 393 renal
  TGI: 15.9 µM
SF-268 CNS
  TGI: 55.1 µM
SF-295 CNS
  TGI: > 66 µM
SF-539 CNS
  TGI: 36.9 µM
SK-MEL-2 melanoma
  TGI: 40.6 µM
SK-MEL-28 melanoma
  TGI: 41.7 µM
SK-MEL-5 melanoma
  TGI: > 54.3 µM
SK-OV-3 ovarian
  TGI: > 100 µM
SN12C renal
  TGI: 34.2 µM
SNB-19 CNS
  TGI: > 100 µM
SNB-75 CNS
  TGI: > 59.4 µM
SR leukemia
  TGI: > 100 µM
SW-620 colon
  TGI: 28.8 µM
T-47D breast
  TGI: 38 µM
TK-10 renal
  TGI: 25.6 µM
U251 CNS
  TGI: 36.3 µM
UACC-257 melanoma
  TGI: 28.1 µM
UACC-62 melanoma
  TGI: 28.5 µM
UO-31 renal
  TGI: 31.1 µM

## Cc1sc2nc3n(c(=O)c2c1C)N=C(c1ccc(Cl)cc1)CS3
786-0 renal
  TGI: > 100 µM
A498 renal
  TGI: > 100 µM
A549 NSCLC
  TGI: > 100 µM
ACHN renal
  TGI: > 100 µM
BT-549 breast
  TGI: > 100 µM
CAKI-1 renal
  TGI: > 100 µM
CCRF-CEM leukemia
  TGI: > 100 µM
COLO 205 colon
  TGI: > 100 µM
DU-145 prostate
  TGI: > 100 µM
EKVX NSCLC
  TGI: > 100 µM
HCC-2998 colon
  TGI: > 100 µM
HCT-116 colon
  TGI: > 100 µM
HCT-15 colon
  TGI: > 100 µM
HL-60(TB) leukemia
  TGI: > 100 µM
HOP-62 NSCLC
  TGI: > 100 µM
HOP-92 NSCLC
  TGI: > 100 µM
HS 578T breast
  TGI: > 100 µM
HT29 colon
  TGI: > 100 µM
K-562 leukemia
  TGI: > 100 µM
KM12 colon
  TGI: > 100 µM
LOX IMVI melanoma
  TGI: > 100 µM
MALME-3M melanoma
  TGI: > 100 µM
MCF7 breast
  TGI: > 100 µM
MDA-MB-231 breast
  TGI: > 100 µM
MDA-MB-435
  TGI: > 100 µM
MDA-N
  TGI: > 100 µM
MOLT-4 leukemia
  TGI: > 100 µM
NCI-H226 lung
  TGI: > 100 µM
NCI-H23 lung
  TGI: > 100 µM
NCI-H460 lung
  TGI: > 100 µM
NCI-H522 lung
  TGI: > 100 µM
NCI/ADR-RES ovarian
  TGI: > 100 µM
OVCAR-3 ovarian
  TGI: > 100 µM
OVCAR-4 ovarian
  TGI: > 100 µM
OVCAR-5 ovarian
  TGI: > 100 µM
OVCAR-8 ovarian
  TGI: > 100 µM
PC-3 prostate
  TGI: > 100 µM
RPMI-8226 leukemia
  TGI: > 100 µM
RXF 393 renal
  TGI: > 100 µM
SF-268 CNS
  TGI: > 100 µM
SF-295 CNS
  TGI: > 100 µM
SF-539 CNS
  TGI: > 100 µM
SK-MEL-28 melanoma
  TGI: > 100 µM
SK-MEL-5 melanoma
  TGI: > 100 µM
SK-OV-3 ovarian
  TGI: > 100 µM
SN12C renal
  TGI: > 100 µM
SNB-75 CNS
  TGI: > 100 µM
SR leukemia
  TGI: > 100 µM
SW-620 colon
  TGI: > 100 µM
T-47D breast
  TGI: > 100 µM
U251 CNS
  TGI: > 100 µM
UACC-257 melanoma
  TGI: > 100 µM
UACC-62 melanoma
  TGI: > 100 µM
UO-31 renal
  TGI: > 100 µM

Source: PubChem BioAssay (NCI)
